Reference: EP1935887A1, “Heterocyclic substituted carbonyl derivatives and their use as dopamine D3 receptor ligands” (Aventis Pharmaceuticals Inc., priority 2001, dated 2002)

These compounds were tested against T1, Cloned Human Dopamine D3 Receptors (Homo sapiens, UniProt P35462) (assay: [N-Methyl-3H]Spiroperidol binding to cloned human dopamine D3 receptors). Conditions: Table 2; unit inferred; read-out: d3Ki.
T1 construct: expressed in transfected cells; membrane homogenate
Excerpt: [N-Methyl-^3H]Spiroperidol Binding to Cloned Human Dopamine D3 Receptors
This assay measures the in vitro activity of compounds on cloned human dopamine (D3) receptors and predicts the direct dopamine-blocking properties of putative neuropsychiatric agents at human dopamine D3 receptors.
The D3 gene was isolated from a human striatal cDNA library (Stratagene). The gene was sequenced and sub-cloned into the expression vector RC/RSV (Invitrogen). CHO (Chinese Hamster Ovary) cells were stably transfected with 10 µg of the D3/RSV plasmid using the DOTAP method from Boehringer Mannheim and 72 clones that were G418 resistant were isolated. Using mRNA and binding displacement data a single high expressing clone was identified. This clone was then grown in large batches for the purpose of developing a 96 well format assay.
• 1. One plate (10 cm) with approximately 2-3 million D3 cells per plate is incubated with 1 ml of Trypsin-EDTA at room temperature for -2 min or until cells have lifted off plates. Four ml of Ham's F12 + 10% Fetal Bovine Serum + 1% Penicillin/Streptomycin + G418 (400 µg/ml) medium are added to resuspend cells and 1 ml of this is added to each large plate (15 cm) containing 19 ml of the same medium as mentioned above. • 2. The 5 large plates are incubated at 37°C + 5% CO2 for - 3 days or until the cells are confluent. • 3. After these plates are confluent, they are split into 10 large plates. Medium is aspirated off, 2 ml of Trypsin-EDTA are added to each plate and plates are incubated at RT for 2 min or until cells have lifted off the plate. Eight ml of the F12 medium (same medium as #1 above) are added to each plate (10 ml total) to resuspend the cells and 5 ml are transferred to the 2 new plates containing 15 ml of the F12 media. • 4. The 10 large plates are incubated at 37°C + 5% CO2 for ∼ 2 days or until the cells are confluent. • 5. The 10 large plates are split into 60 large plates (using Trypsin-EDTA as #3 except 4 ml of F12 medium are added to resuspend cells and 1 ml is aliquoted to 6 new plates containing 19 ml of F12 medium each). • 6. Plates are incubated at 37°C + 5% CO2 for - 3 days or until cell are confluent. • 7. The 60 large plates are then split into 60 roller bottles (100-150 million cells/bottle). Medium is aspirated off , 2 ml of Trypsin-EDTA are added to each plate and incubated at RT for -2 minutes or until cells have lifted off plates. Eight ml of F12 medium are added to each plate to resuspend cells and the entire 10 ml are added to 1 roller bottle containing 90 ml of the F12 medium. • 8. The 60 roller bottles are immediately placed on their sides and transferred to the roller bottle incubator. They are incubated at 37°C + 5% CO2 for ~ 3-5 days. Cells are spun at 30-40% motor speed in the Forma incubator. • 9. Medium is poured off and cells are washed 2X in PBS. • 10. Cells are then scraped off in 20 ml of PBS and the bottles are rinsed again with 5 ml of PBS to remove any remaining cells. Cells are stored on ice before membrane prepration. • 11. The yield for 60 D3 roller bottles has varied from - 260-500 mg. Note: All tissue culture reagents are from Gibco-BRL.
The cells are harvested into 250 ml centrifuge tubes with 100 volumes of cold phosphate buffered saline (PBS) and spun down (1200xG for 10 min at 4°C). The medium is removed and 100 ml PBS are added to each centrifuge tube, cells are resuspened and spun down again. The PBS is removed and the final pellet is homogenized in an appropriate volume of 10% DMSO with a polytron on ice at a medium setting.
A 200 µl sample membrane homogenate is added to 200 µl of 1% SDS, vortexed and allowed to stand for 5 min. Aliquots (25, 50 and 100 µl) of this mixture are assayed in duplicate following the standard Bio-Rad DC protein assay protocol (kit catalog number 500-0112) and using reagent S. Absorbance readings are made at 750 nm (note: the most accurate protein OD readings are between 0.1-0.5 units). […]

T1 sequence (P35462 whole entry): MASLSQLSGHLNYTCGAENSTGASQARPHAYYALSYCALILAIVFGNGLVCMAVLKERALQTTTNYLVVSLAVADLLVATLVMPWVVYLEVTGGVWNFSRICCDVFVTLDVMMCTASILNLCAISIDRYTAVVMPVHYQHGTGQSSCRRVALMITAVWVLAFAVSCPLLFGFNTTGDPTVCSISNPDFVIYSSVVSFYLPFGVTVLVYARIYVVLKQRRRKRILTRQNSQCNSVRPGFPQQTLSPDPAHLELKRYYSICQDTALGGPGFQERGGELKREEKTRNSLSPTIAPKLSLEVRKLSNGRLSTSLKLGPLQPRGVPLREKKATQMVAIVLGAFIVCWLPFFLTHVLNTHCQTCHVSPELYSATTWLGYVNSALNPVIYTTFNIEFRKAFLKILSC

SMILES | Ki [nM]
C[C@H]1CC[C@H](NC(=O)[C@@H]2C[C@H]2CN2CCN(c3ccccc3C#N)CC2)CC1 [compound 817040] | 0.804
CCC1CCC(NC(=O)C2CC2CN2CCN(c3cccc(Cl)c3Cl)CC2)CC1 (centres unmarked) [compound 817041] | 0.776
CCC1CCC(NC(=O)C2CC2CN2CCN(c3cc(Cl)ccc3OC)CC2)CC1 (centres unmarked) [compound 817042] | 0.615
CCC1CCC(NC(=O)C2CC2CN2CCN(c3ccc(C(F)(F)F)cc3)CC2)CC1 (centres unmarked) [compound 817043] | 7.2
CC[C@H]1CC[C@H](NC(=O)[C@@H]2C[C@H]2CN2CCN(c3ccccc3C#N)CC2)CC1 [compound 817044] | 1.1
Cc1ccc(N2CCN(C[C@@H]3C[C@H]3C(=O)N[C@H]3CC[C@H](C)CC3)CC2)cc1C [compound 817045] | 5.36
CCC1CCC(NC(=O)C2CC2CN2CCN(c3ccc(C)c(C)c3)CC2)CC1 (centres unmarked) [compound 817046] | 1.92
O=C(N[C@H]1CC[C@H](C(=O)N2CCCC2)CC1)[C@@H]1C[C@H]1CN1CCN(c2csc3cc(C(F)(F)F)ccc23)CC1 [compound 817047] | 2.86
CCN(CC)C(=O)[C@H]1CC[C@H](NC(=O)[C@@H]2C[C@H]2CN2CCN(c3csc4cc(C(F)(F)F)ccc34)CC2)CC1 [compound 817048] | 2.85
COCCNC(=O)C1CCC(NC(=O)C2CC2CN2CCN(c3csc4cc(C(F)(F)F)ccc34)CC2)CC1 (centres unmarked) [compound 817049] | 7.02
C[C@]1(O)CC[C@H](NC(=O)[C@@H]2C[C@H]2CN2CCN(c3csc4cc(C(F)(F)F)ccc34)CC2)CC1 [compound 817050] | 2.15
C[C@]1(O)CC[C@@H](NC(=O)[C@@H]2C[C@H]2CN2CCN(c3csc4cc(C(F)(F)F)ccc34)CC2)CC1 [compound 817051] | 3.47
CC[C@H]1CC[C@H](NC(=O)[C@@H]2C[C@H]2CN2CCN(c3ccc(Cl)c(Cl)c3)CC2)CC1 [compound 817090] | 2.17
CC[C@H]1CC[C@H](NC(=O)[C@@H]2C[C@H]2CN2CCN(c3ccc(C)cc3C)CC2)CC1 [compound 817091] | 3.98
CC[C@H]1CC[C@H](NC(=O)[C@@H]2C[C@H]2CN2CCN(c3ncc(C(F)(F)F)cc3Cl)CC2)CC1 [compound 817093] | 5.97
COc1ccc(N2CCN(C[C@@H]3C[C@H]3C(=O)N[C@H]3CC[C@H](C)CC3)CC2)c(OC)c1 [compound 817094] | 8.89
C[C@H]1CC[C@H](NC(=O)[C@@H]2C[C@H]2CN2CCN(c3cc(Cl)cc(Cl)c3)CC2)CC1 [compound 817095] | 0.671
CC[C@H]1CC[C@H](NC(=O)[C@@H]2C[C@H]2CN2CCN(c3ccc(OC)cc3OC)CC2)CC1 [compound 817096] | 9.09
CCC1CCC(NC(=O)C2CC2CN2CCN(c3cc(Cl)cc(Cl)c3)CC2)CC1 (centres unmarked) [compound 817097] | 0.636
C[C@H]1CC[C@H](NC(=O)[C@@H]2C[C@H]2CN2CCN(c3cccc4[nH]ccc34)CC2)CC1 [compound 817098] | 1.06

Other lines, results leading:

Ki [nM] | SMILES
1.1 | C[C@H]1CC[C@H](NC(=O)[C@@H]2C[C@H]2CN2CCN(c3cccc4ccccc34)CC2)CC1 [compound 817099]
0.75 | CCC1CCC(NC(=O)C2CC2CN2CCN(c3cccc4[nH]ccc34)CC2)CC1 (centres unmarked) [compound 817100]
0.547 | CC[C@H]1CC[C@H](NC(=O)[C@@H]2C[C@H]2CN2CCN(c3cccc4ccccc34)CC2)CC1 [compound 817101]
7.75 | CC[C@H]1CC[C@H](NC(=O)[C@@H]2C[C@H]2CN2CCN(c3cc(C)ccc3C)CC2)CC1 [compound 817102]
12.5 | CCC1CCC(NC(=O)C2CC2CN2CCCN(c3cc(C(F)(F)F)nc(C(C)(C)C)n3)CC2)CC1 (centres unmarked) [compound 817260]
9.23 | CC1CCC(NC(=O)C2CC2CN2CCCN(c3cc(C(F)(F)F)nc(C(C)(C)C)n3)CC2)CC1 (centres unmarked) [compound 817261]
1.72 | CCCc1cc(N2CCCN(C[C@@H]3C[C@H]3C(=O)N[C@H]3CC[C@H](CC)CC3)CC2)nc(C(C)(C)C)n1 [compound 817272]
3.05 | CCCc1cc(N2CCCN(C[C@@H]3C[C@H]3C(=O)N[C@H]3CC[C@H](C)CC3)CC2)nc(C(C)(C)C)n1 [compound 817273]
1.73 | C[C@H]1CC[C@H](NC(=O)[C@@H]2C[C@H]2CN2CCN(c3ncccc3Cl)CC2)CC1 [compound 817565]
2.46 | CC[C@H]1CC[C@H](NC(=O)[C@@H]2C[C@H]2CN2CCN(c3ncccc3Cl)CC2)CC1 [compound 817566]
80.6 | CC1CCC(NC(=O)C2CC2CN2CCCN(c3cnccn3)CC2)CC1 (centres unmarked) [compound 817567]
36.3 | CC[C@H]1CC[C@H](NC(=O)[C@@H]2C[C@H]2CN2CCCN(c3cnccn3)CC2)CC1 [compound 817568]
5.52 | CCC1(O)CCC(NC(=O)[C@@H]2C[C@H]2CN2CCN(c3csc4cc(C(F)(F)F)ccc34)CC2)CC1 (some centres unmarked) [compound 818497]
25.6 | CC1CCC(NC(=O)C2CC2CN2CCCN(c3ccccn3)CC2)CC1 (centres unmarked) [compound 818498]
22.1 | CC[C@H]1CC[C@H](NC(=O)[C@@H]2C[C@H]2CN2CCN(c3csc4cc(C(F)(F)F)ccc34)CC2)CC1 [compound 818499]
9.6 | CCC1CCC(NC(=O)C2CC2CN2CCN(c3noc4ccsc34)CC2)CC1 (centres unmarked) [compound 818574]
38 | CN(C(=O)CCCCN1CCN(c2csc3cc(F)ccc23)CC1)c1ccccc1 [compound 822129]
51 | CCN(C(=O)CCCCN1CCN(c2csc3cc(F)ccc23)CC1)c1ccc2c(c1)OCO2 [compound 822130]
61 | COc1ccc(N(C)C(=O)CCCCN2CCN(c3csc4cc(F)ccc34)CC2)cc1 [compound 822131]
18 | CCN(C(=O)CCCCN1CCN(c2csc3cc(F)ccc23)CC1)c1c(C)cccc1O [compound 822132]
17 | CN(C(=O)CCCCN1CCN(c2csc3cc(F)ccc23)CC1)c1ccc(Cl)cc1 [compound 822133]
82 | O=C(CCCCN1CCN(c2csc3cc(F)ccc23)CC1)Nc1cccc2ccccc12 [compound 822134]
3.6 | O=C(CCCCN1CCN(c2csc3cc(F)ccc23)CC1)Nc1ccccc1F [compound 822135]
207 | CC(C)(C)c1ccc(NC(=O)CCCCN2CCN(c3csc4cc(F)ccc34)CC2)cc1 [compound 822136]
36 | O=C(CCCCN1CCN(c2csc3cc(F)ccc23)CC1)Nc1cccc(Oc2ccccc2)c1 [compound 822137]
81 | CN(C(=O)CCCCN1CCN(c2csc3cc(F)ccc23)CC1)c1cccc2ccccc12 [compound 822138]

Same assay, conditions: d3Ki, Table 2; unit inferred

SMILES | Ki [nM]
C[C@H]1CC[C@H](NC(=O)[C@H]2C[C@@H]2CN2CCN(c3noc4ccsc34)CC2)CC1 [compound 817893] | 245
CC1CCC(NC(=O)C2CC2CN2CCN(c3noc4ccsc34)CC2)CC1 (centres unmarked) [compound 818427] | 6.07

Same assay, conditions: read-out: d3Ki

Ki [nM] | SMILES
1.46 | Cc1ccccc1N1CCN(CC2CC2C(=O)NC2CCC(C)CC2)CC1 (centres unmarked) [compound 817478]
3.07 | CC[C@H]1CC[C@H](NC(=O)[C@@H]2C[C@H]2CN2CCN(c3ncc(C(F)(F)F)cc3Cl)CC2)CC1 [compound 817480]
6.24 | CC[C@H]1CC[C@H](NC(=O)[C@@H]2C[C@H]2CN2CCN(c3cc(C)ccc3C)CC2)CC1 [compound 817570]
2.85 | CC[C@H]1CC[C@H](NC(=O)[C@@H]2C[C@H]2CN2CCN(c3ccc(C)cc3C)CC2)CC1 [compound 817571]
0.711 | CCC1CCC(NC(=O)C2CC2CN2CCN(c3ccccc3C)CC2)CC1 (centres unmarked) [compound 818675]
